Source: patent US6117840A, “CS-1 peptidomimetics, compositions and methods of using the same” (Cytel Corporation, priority 1997, dated 2000)
Read-outs that look alike come from different tables or passages of the source. Square brackets hold non-standard residues; d marks the D form. Peptide text beside a SMILES is read from it. * marks the point of attachment. PhAc = O=C(Cc1ccccc1)*

Assays:
asthmatic sheep = experiment: Treatment of asthmatic sheep (Ascaris suum antigen); assay type: in vivo; conditions: for PC400, carbacol dosage to increase SRL 4-fold, 24 hours after challenge: pre-challenge values about 20-23 BU
Method: Six asthmatic sheep were treated in a double blind cross-over study by Dr. William M. Abraham of the Department of Research, Mount Sinai Medical Center, 4300 Alton Road, Miami Beach, Fla. 33140. […] This study was carried out generally as described in Abraham et al., J. Clin. Invest., 93:776-787 (1994).
The inhibitor peptide used here was N--phenylacetyl--Leu--Asp--Phe--D--Pro--NH2, with a control peptide that comprised the previously described peptide having the same residues in a scrambled sequence. The vehicle for the nebulized peptides was phosphate-buffered saline. The peptides were administered at a dose of 1 mg/kg each, twice a day for three days prior to challenge, as well as 0.5 hours prior to and four hours post challenge on day 4. Because this was a crossover study, each animal received one or the other treatment, followed by a rest and then the other treatment. Each animal therefore served as its own control.

VLA-4 = target: T1, VLA-4 (Homo sapiens, UniProt P05556+P13612); assay type: cell-based; conditions: for RELATIVE POTENCY (inhibition of VLA-4 binding CS-1): relative to standard peptide SEQ ID NO:3 (=1), normalized IC50, about one-tenth or less of SEQ ID NO:3 assigned zero
T1 construct: host or cells: Jurkat (human T lymphoblastic line)
Method in brief: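 ⁵¹Cr-labelled Jurkat cells were preincubated with peptide for 30 min at ~22 °C, then allowed to adhere 30 min at 37 °C to wells coated with CS1 peptide or CS1-OVA. After washing, bound cells were SDS-lysed and counted. IC50 is the concentration halving cell binding.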

T1 sequence (P13612 34-1032): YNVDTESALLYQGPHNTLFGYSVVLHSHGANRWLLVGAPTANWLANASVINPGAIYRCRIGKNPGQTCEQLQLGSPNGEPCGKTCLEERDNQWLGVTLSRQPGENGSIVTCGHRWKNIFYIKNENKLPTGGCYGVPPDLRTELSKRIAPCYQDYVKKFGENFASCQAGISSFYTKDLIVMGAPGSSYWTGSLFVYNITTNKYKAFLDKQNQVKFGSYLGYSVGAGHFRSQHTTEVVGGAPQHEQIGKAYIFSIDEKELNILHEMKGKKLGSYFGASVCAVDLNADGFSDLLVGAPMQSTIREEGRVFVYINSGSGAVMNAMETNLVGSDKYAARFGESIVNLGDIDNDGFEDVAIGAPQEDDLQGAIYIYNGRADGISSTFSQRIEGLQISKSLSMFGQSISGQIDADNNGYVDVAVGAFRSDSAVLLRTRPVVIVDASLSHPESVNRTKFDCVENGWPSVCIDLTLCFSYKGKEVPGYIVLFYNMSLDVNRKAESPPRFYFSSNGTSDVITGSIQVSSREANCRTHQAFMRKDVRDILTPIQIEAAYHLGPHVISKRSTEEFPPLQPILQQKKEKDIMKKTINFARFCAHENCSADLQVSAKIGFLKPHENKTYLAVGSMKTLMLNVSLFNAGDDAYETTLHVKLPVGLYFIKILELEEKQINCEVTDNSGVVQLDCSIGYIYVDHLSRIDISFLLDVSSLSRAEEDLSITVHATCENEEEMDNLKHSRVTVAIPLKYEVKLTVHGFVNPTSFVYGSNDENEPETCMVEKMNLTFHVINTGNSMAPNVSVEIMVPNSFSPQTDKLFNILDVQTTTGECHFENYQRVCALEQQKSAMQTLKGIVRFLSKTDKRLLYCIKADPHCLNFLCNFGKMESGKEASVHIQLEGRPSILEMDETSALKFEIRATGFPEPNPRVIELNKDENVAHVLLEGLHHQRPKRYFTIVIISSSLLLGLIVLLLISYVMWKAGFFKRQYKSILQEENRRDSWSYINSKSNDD
T1 sequence (P05556 21-798): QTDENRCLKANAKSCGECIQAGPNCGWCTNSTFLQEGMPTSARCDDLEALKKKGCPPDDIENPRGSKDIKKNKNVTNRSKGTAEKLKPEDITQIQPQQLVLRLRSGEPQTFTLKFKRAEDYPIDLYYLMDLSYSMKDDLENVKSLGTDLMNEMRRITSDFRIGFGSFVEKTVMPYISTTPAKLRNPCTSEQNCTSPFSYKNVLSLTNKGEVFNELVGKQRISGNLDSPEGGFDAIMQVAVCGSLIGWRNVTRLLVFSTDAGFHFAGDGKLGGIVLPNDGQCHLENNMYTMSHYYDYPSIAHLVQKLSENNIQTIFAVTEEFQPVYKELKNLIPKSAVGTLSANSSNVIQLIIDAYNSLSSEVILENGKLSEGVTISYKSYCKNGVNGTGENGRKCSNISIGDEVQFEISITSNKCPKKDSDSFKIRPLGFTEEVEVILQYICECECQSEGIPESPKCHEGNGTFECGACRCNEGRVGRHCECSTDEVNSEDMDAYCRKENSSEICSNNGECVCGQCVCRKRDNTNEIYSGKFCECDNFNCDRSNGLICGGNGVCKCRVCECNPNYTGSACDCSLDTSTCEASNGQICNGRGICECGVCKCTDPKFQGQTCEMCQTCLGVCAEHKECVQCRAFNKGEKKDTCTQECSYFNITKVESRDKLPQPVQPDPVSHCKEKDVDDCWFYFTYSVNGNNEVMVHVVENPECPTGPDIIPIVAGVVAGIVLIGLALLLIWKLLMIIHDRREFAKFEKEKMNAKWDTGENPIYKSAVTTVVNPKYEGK

Compound: CC(C)C[C@H](NC(=O)[C@H](CC(=O)O)NC(=O)Cc1ccccc1)C(=O)N[C@@H](Cc1ccccc1)C(=O)N1CCC[C@@H]1C(N)=O [X L D F p phenylacetyl amide scrambled, N--phenylacetyl--Asp--Leu--Phe--D--Pro--NH2, reference compound] (PhAc-DLF[dP]-NH2)
- PC400, carbacol dosage to increase SRL 4-fold, 24 hours after challenge (asthmatic sheep): about 12 BU
- binding inhibition (in words) (VLA-4; compared to standard 10-mer / B12): no inhibition of VLA-4
- RELATIVE POTENCY (inhibition of VLA-4 binding CS-1) (VLA-4): 0
- RELATIVE POTENCY (inhibition of VLA-4 binding CS-1) (VLA-4; listed as N--phenylacetyl--Asp--Leu--Phe--D--Pro--NH2): < 1

Compound: CC(C)C[C@H](NC(=O)Cc1ccccc1)C(=O)N[C@@H](CC(=O)O)C(=O)N[C@@H](Cc1ccccc1)C(=O)N1CCC[C@@H]1C(N)=O [X L D F p phenylacetyl amide, N--phenylacetyl--Leu--Asp--Phe--D--Pro--NH2] (PhAc-LDF[dP]-NH2)
- change in specific lung resistance (SRL) after challenge (FIG. 7) (asthmatic sheep; 1 mg/kg nebulized twice a day, versus control peptide): less of a change from baseline specific lung resistance
- PC400, carbacol dosage to increase SRL 4-fold, 24 hours after challenge (asthmatic sheep): about 27 BU
- VLA-4 binding inhibition, times better than the standard 10-mer peptide of SEQ ID NO:3 (VLA-4): about 312 times
- RELATIVE POTENCY (inhibition of VLA-4 binding CS-1) (VLA-4): 313
